Measurements: patent publication EP0377642B1, “HERBICIDES FOR WEED CONTROL IN RICE” (E.I. DU PONT DE NEMOURS AND COMPANY, priority 1987, dated 1989)

What was measured:
Assay type in all cases: in vivo
WEED [1] = experiment: Effects in combination with Bensulfuron Methyl and Thiobencarb or Pretilachlor on weed control (Table 24); details: rate 25 g ai/ha, scale 0 to 10, treated at 1.0 leaf stage, evaluated four weeks later
Description: (§1) Methyl 2-[[[[(4-methoxy-6-methyl-1,3,5-triazin-2-yl)amino]carbonyl]amino]sulfonyl]benzoate (Compound 1) and mixtures thereof with other compounds were applied as a spray (using a hand sprayer) to rice (either transplanted or direct seeded) in several rice growing areas in Southeast Asia and in the U.S. Tables 1-28 contain the results of these tests and clearly exemplify the utility of this invention. The details of each application are included in the appropriate table. [drawing 2]

SEDGE = experiment: Field test applied 7 DAS in direct seeded rice in the Philippines, cover (Table 14); details: 47 DAA
Description: as §1

[2] = tested on: Barnyardgrass (Echinochloa crus-galli); experiment: as above; details: 47 DAA
Description: as §1

Cyperus difformis [3] = experiment: Herbicidal efficacy with Bensulfuron methyl and 2,4-D in Thailand (Table 18); details: 13 days after treatment
Description: as §1

rice [4] = experiment: as above; details: 13 days after treatment
Description: as §1

Sphenoclea zeylanica [5] = experiment: as above; details: 13 days after treatment
Description: as §1

Marsilea crenata = experiment: Field test with Bensulfuron methyl in direct seeded rice (Table 10); details: 10 = complete control
Description: as §1

Cyperus iria = experiment: as above; details: 10 = complete control
Description: as §1

Sphenoclea zeylanica [6] = experiment: as above; details: 10 = complete control
Description: as §1

WEED [7] = experiment: Effects in combination with Bensulfuron Methyl and Thiobencarb or Pretilachlor on weed control (Table 25); details: rate 25 g ai/ha, scale 0 to 10, treated at 2.0 leaf stage, evaluated four weeks later
Description: as §1

rice [8] = experiment: Effects in combination with Bensulfuron Methyl and Thiobencarb or Pretilachlor on rice growth (Table 23); details: rate 25 g ai/ha; var. Koshihikari, applied 7 days after transplanting, rated 21 days after application
Description: as §1

Ludwigia linifolia = experiment: Herbicidal efficacy with Bensulfuron methyl and 2,4-D in Thailand (Table 20); details: 14 days after treatment
Description: as §1

FIMBRISTYLIS MILIACEA = experiment: as above; details: 14 days after treatment
Description: as §1

rice [9] = experiment: as above; details: 14 days after treatment
Description: as §1

Cuperus iria = experiment: as above; details: 14 days after treatment
Description: as §1

Sphenoclea zeylanica [10] = experiment: as above; details: 14 days after treatment
Description: as §1

Cyperus difformis [11] = experiment: Field test applied at 7 DAS in direct seeded rice (Table 11); details: scale 0-10
Description: as §1

Sphenoclea zeylanica [12] = experiment: as above; details: scale 0-10
Description: as §1

COC(=O)c1ccccc1CS(=O)(=O)NC(=O)Nc1nc(OC)cc(OC)n1 [Bensulfuron methyl, methyl 2-[[[[[(4,6-dimethoxy-2-pyrimidinyl)amino]carbonyl]amino]sulfonyl]methyl]benzoate]
WEED CONTROL RATINGS EO (WEED [1]; Echinochloa oryzicola): 1
WEED CONTROL RATINGS BL (WEED [1]; Lindernia pyxidaria): 10
WEED CONTROL RATINGS MV (WEED [1]; Monochoria vaginalis): 10
WEED CONTROL RATINGS SP (WEED [1]; Sagittaria pygmaea): 8.5
WEED CONTROL RATINGS SJ (WEED [1]; Scirpus juncoides): 5
% SEDGE COVER (SEDGE; 8.25 G AI/HA): 4%
% SEDGE COVER (SEDGE; 12.0 G AI/HA): 2%
% SEDGE COVER (SEDGE; 16.50 G AI/HA): 2%
% BYG COVER ([2]; 8.25 G AI/HA): 29%
% BYG COVER ([2]; 12.0 G AI/HA): 17%
% BYG COVER ([2]; 16.50 G AI/HA): 28%
% CONTROL OR INJURY CD (Cyperus difformis [3]; 10 GAI/HA): 100%
% CONTROL OR INJURY CD (Cyperus difformis [3]; 15 GAI/HA): 100%
% CONTROL OR INJURY CD (Cyperus difformis [3]; 20 GAI/HA): 100%
% CONTROL OR INJURY RICE (rice [4]; 10 GAI/HA): 0%
% CONTROL OR INJURY RICE (rice [4]; 15 GAI/HA): 0%
% CONTROL OR INJURY RICE (rice [4]; 20 GAI/HA): 0%
% CONTROL OR INJURY SZ (Sphenoclea zeylanica [5]; 10 GAI/HA): 99%
% CONTROL OR INJURY SZ (Sphenoclea zeylanica [5]; 15 GAI/HA): 100%
% CONTROL OR INJURY SZ (Sphenoclea zeylanica [5]; 20 GAI/HA): 100%
WEEDS CONTROL at 4 WAA MC (Marsilea crenata; 10 GAI/HA): 0
WEEDS CONTROL at 4 WAA MC (Marsilea crenata; 20 GAI/HA): 3.33
WEEDS CONTROL at 4 WAA CI (Cyperus iria; 10 GAI/HA): 2
WEEDS CONTROL at 4 WAA CI (Cyperus iria; 20 GAI/HA): 8
WEEDS CONTROL at 4 WAA SZ (Sphenoclea zeylanica [6]; 10 GAI/HA): 0
WEEDS CONTROL at 4 WAA SZ (Sphenoclea zeylanica [6]; 20 GAI/HA): 6
WEED CONTROL RATINGS CD (WEED [7]; Cyperus difformis): 10
WEED CONTROL RATINGS CS (WEED [7]; Cyperus serotinus): 2
WEED CONTROL RATINGS EO (WEED [7]; Echinochloa oryzicola): 1
WEED CONTROL RATINGS BL (WEED [7]; Lindernia pyxidaria): 9
WEED CONTROL RATINGS MV (WEED [7]; Monochoria vaginalis): 9
WEED CONTROL RATINGS SP (WEED [7]; Sagittaria pygmaea): 8
WEED CONTROL RATINGS SJ (WEED [7]; Scirpus juncoides): 5
CROP TOLERANCE DW (Dry weight relative to untreated check) (rice [8]): 79%
CROP TOLERANCE PH (Plant height relative to untreated check) (rice [8]): 89%
CROP TOLERANCE VA (Visual crop injury) (rice [8]): 2.5%
% CONTROL OR INJURY LL (Ludwigia linifolia; 10 GAI/HA): 80%
% CONTROL OR INJURY LL (Ludwigia linifolia; 15 GAI/HA): 80%
% CONTROL OR INJURY LL (Ludwigia linifolia; 20 GAI/HA): 87%
% CONTROL OR INJURY FM (FIMBRISTYLIS MILIACEA; 10 GAI/HA): 80%
% CONTROL OR INJURY FM (FIMBRISTYLIS MILIACEA; 15 GAI/HA): 100%
% CONTROL OR INJURY FM (FIMBRISTYLIS MILIACEA; 20 GAI/HA): 100%
% CONTROL OR INJURY RICE (rice [9]; 10 GAI/HA): 0%
% CONTROL OR INJURY RICE (rice [9]; 15 GAI/HA): 0%
% CONTROL OR INJURY RICE (rice [9]; 20 GAI/HA): 0%
% CONTROL OR INJURY CI (Cuperus iria; 10 GAI/HA): 77%
% CONTROL OR INJURY CI (Cuperus iria; 15 GAI/HA): 90%
% CONTROL OR INJURY CI (Cuperus iria; 20 GAI/HA): 95%
% CONTROL OR INJURY SZ (Sphenoclea zeylanica [10]; 10 GAI/HA): 23%
% CONTROL OR INJURY SZ (Sphenoclea zeylanica [10]; 15 GAI/HA): 60%
% CONTROL OR INJURY SZ (Sphenoclea zeylanica [10]; 20 GAI/HA): 53%
WEED CONTROL at 6 WAA CD (Cyperus difformis [11]; 10 GM.A.I./HA): 10
WEED CONTROL at 6 WAA CD (Cyperus difformis [11]; 15 GM.A.I./HA): 10
WEED CONTROL at 6 WAA CD (Cyperus difformis [11]; 20 GM.A.I./HA): 10
WEED CONTROL at 6 WAA CD (Cyperus difformis [11]; 30 GM.A.I./HA): 10
WEED CONTROL at 6 WAA SZ (Sphenoclea zeylanica [12]; 10 GM.A.I./HA): 10
WEED CONTROL at 6 WAA SZ (Sphenoclea zeylanica [12]; 15 GM.A.I./HA): 10
WEED CONTROL at 6 WAA SZ (Sphenoclea zeylanica [12]; 20 GM.A.I./HA): 10
WEED CONTROL at 6 WAA SZ (Sphenoclea zeylanica [12]; 30 GM.A.I./HA): 10
